In patent EP0546661A1, “Pyrimidine derivatives, method for preparation thereof and pharmaceutical composition having said derivatives as active elements” (JAPAN ENERGY CORPORATION, priority 1991, dated 1993):
Where two headings read alike, the source gives them in different places.

Tests used:
male SD rats [1] = assay: Carageenin induced paw edema; type: in vivo; details: oral, 1 hour before carageenin, paw volume 3 hours after carageenin, suppression of edema forming rate
Experimental: The test compounds were orally administered to male SD rats, 10 per a group, which were fasted for 24 hours prior to the administration, and after one hour, 0.1 ml of 1% λ-carageenin (Picnin A, Zushi Chemical Co., Ltd.) in saline was injected subcutaneously into the right hind paw. The paw volumes were measured plethysmographically at before and 3 hours after the carageenin administration. Defining the paw volume before the injection of the λ-carageenin as the basal volume, the edema forming rates were calculated by the following equation. Edma Forming Rate(%) =((Paw volume after carageenin injection) - (Paw volume before carageenin injection))/(Paw volume before carageenin injection)x 100 [formula]
Compounds shown in the examples 1 -3 and 5 were tested and diclofenac was used as controls.

[2] = test system: bronchis of Hartle guinea pigs; assay: Dilating action of bronchia by Schultz-dale reaction
Experimental: The specimens were prepared by removing the bronchis of Hartle guinea pigs after sensitizing them with egg white albumin and terminating them by blood releasing under ether anesthesia. Each specimen was hanged down in the Magnus vessel filled with Tyrode's solution (saturated with gas composed of 95% oxygen and 5% carbon dioxide by bubbling at pH 7.4 and at […]). A tension of 1g was loaded to the specimen. After the tension became constant, histamine was added to the final concentration of 2 x 10⁻⁷ g/ml to cause the specimen to contract. The specimen was taken out from the vessel, washed thoroughly and hanged down in a different Magnus vessel filled with egg white albumin, of which final concentration was 1 x 10⁻⁵ g/ml, to cause the specimen to contract. […] As a control, theophylline in 0.1% dimethylsulphoxide aqueous solution was used. The efficacy of the test compounds was described by the suppression rate, in percentage, calculated from the contraction value obtained after the addition of the test compound, defining the contraction value caused by the egg white albumin before the addition of the test compound as 100 %.

[3] = Scavenging activity of hydroxy radicals (linolenic acid peroxidation, absorbance at 234 nm); type: biochemical; details: test compound concentration 10 µM
Experimental: Scavenging activity of hydroxy radicals were confirmed according to the method of Kharasch et al. [J. Biol. Chem., 260, 106452 (1985)]. The method is as follows. The reactions were started by adding 80 µM iron chloride (II) to the reaction mixture containing test compounds, 30 mM sodium chloride, 1.0 mM linolenic acid, 0.08% rubrol and 100 µM hydrogen peroxide in 1% N,N-dimethylformamide aqueous solution. The time course of peroxidation reaction caused by the action of hydroxy radicals to linolenic acid were monitored by measuring the change of absorbance at 234 nm reflecting the generation of conjugate double bond, and thus the disappearance of the hydroxy radicals by test compounds was measured. The reaction suppression rates of test compounds at their concentration of 10 µM were calculated and the values are listed in Table 5 below.

male SD rats [4] = assay: Ulcer forming activity; type: in vivo; details: oral 10 mg/kg once daily for 5 days; 10 rats per group; stomach ulcers observed after 24 hours fasting
Experimental: The test compounds were orally administered to male SD rats, 10 per a group, at the dosage of 10 mg/kg, once daily for 5 days. After the final administration, rats were fasted for 24 hours and killed by blood releasing under ether anesthesia. The stomachs were taken out and the presence of ulcers were observed.
The same experiments were done with control compounds, E-5110 [Arznein Forsch. Drug Res., 37, 930 (1987), ibid, 37, 936 (1987)] abd diclofenac.

SD rats = assay: Repeated administration toxicity in SD rats; type: in vivo; details: 500 mg/kg, repeatedly for 2 weeks
Excerpt: Theophylline is known to have high toxicity and its LD₅₀ is about […] in rat. […]

male mongolian gerbils = assay: Brain edema (carotid artery occlusion and re-perfusion); type: in vivo; details: 2 mg/kg intraperitoneally 15 minutes before occlusion; 3 hours ischemia, 3 hours re-perfusion; 6 per group
Experimental: The total left carotid artery of male mongolian gerbils were separated from surrounding tissues and exposed under the Halosen anesthesia, and when awakened from the anesthesia, the total left carotid arteries were occuled by a aneurysm forming clip. […] The next day, the total left caroted artery of the selected animals, 6 per a group, were re-exposed under the Halosen anesthesia, and when these animals were awakened, the test compounds were administered intraperitoneally (2 mg/kg), followed by occluding the left total carotid artery by a aneurysm forming clip 15 minutes after the administration. After 3 hours ischemla, the clips were removed to re-perfusion. The animals were guillotined at 3 hours after the re-perfusion, immediately followed by removing out the brains, separated their left and right parts at its median line and measured each brain weights. The brains were dried in the dry heat sterilizer at 100°C for 3 days, and measured each brain weights.
Here, for the comparison, experiments with only surgical operations and stitchings were done as a operation only group, and experiments with only surgical operations, clip blockigs and stitchings and without the administration of the test compounds were done as a control group.

rat = details: cited from earlier work

| SMILES | Suppression Rate (%) (male SD rats [1]; dose 2 mg/kg) | IC50 ([2]; Cavia porcellus) [µM] | Suppression Rate (%) [3] [%] | Ulcer Cases (male SD rats [4]) | further results |
| --- | --- | --- | --- | --- | --- |
| CCN1C(=O)C(=Cc2cc(C(C)(C)C)c(O)c(C(C)(C)C)c2)C(=O)N(CC)C1=O [Example 2, 1,3-diethyl-5-(3,5-di-tert-butyl-4-hydroxybenzylidene)-pyrimidine-2,4,6-trione] | 32 | 67 | 15 | – | – |
| CN1C(=O)C(=Cc2cc(C(C)(C)C)c(O)c(C(C)(C)C)c2)C(=O)N(c2ccccc2)C1=O [Example 1, 1-methyl-3-phenyl-5-(3,5-di-tert-butyl-4-hydroxybenzylidene)-pyrimidine-2,4,6-trione] | 48 | 50 | 59 | 0/10 | abnormal symptoms (SD rats): no abnormal symptoms were observed |
| O=C(O)Cc1ccccc1Nc1c(Cl)cccc1Cl [Diclofenac, reference compound] | – | – | – | 2/10 | Suppression Rate (%) (male SD rats [1]; dose 10 mg/kg): 51% |
| CON1CC/C(=C\c2cc(C(C)(C)C)c(O)c(C(C)(C)C)c2)C1=O [Example E-5110, reference compound] | – | – | – | 3/10 | – |
| CC(C)(C)c1cc(C=C2C(=O)NC(=O)N(C3CCCCC3)C2=O)cc(C(C)(C)C)c1O [Example 5, 1-cyclohexyl-5-(3,5-di-tert-butyl-4-hydroxybenzylidene)-pyrimidine-2,4,6-trione] | 24 | 59 | 31 | 0/10 | – |
| Cc1ccc(N2C(=O)C(=Cc3cc(C(C)(C)C)c(O)c(C(C)(C)C)c3)C(=O)N(c3ccc(C)cc3)C2=O)cc1 [Example 7, 1,3-di-p-tolyl-5-(3,5-di-tert-butyl-4-hydroxybenzylidene)-pyrimidine-2,4,6-trione] | – | 39 | 60 | – | water contents, Normal Side (male mongolian gerbils): 79.64 ± 0.09; water contents, Occlusion Side (male mongolian gerbils): 79.94 ± 0.33 |
| CC(C)(C)c1cc(C=C2C(=O)NC(=O)N(c3ccccc3)C2=O)cc(C(C)(C)C)c1O [Example 6, 1-phenyl-5-(3,5-di-tert-butyl-4-hydroxybeniylidene)-pyrimidine-2,4,6-trione] | – | – | 25 | 0/10 | IC50 ([2]; suppression of egg white albumin (1 x 10⁻⁵ g/ml) induced contraction of sensitized guinea pig bronchi, read-out: IC50): 44 µM |
| CCCCN1C(=O)NC(=O)C(=Cc2cc(C(C)(C)C)c(O)c(C(C)(C)C)c2)C1=O [Example 4, 1-butyl-5-(3,5-di-tert-butyl-4-hydroxybenzylidene)-pyrimidine-2,4,6-trione] | – | 43 | 18 | 0/10 | – |
| Cn1c(=O)c2[nH]cnc2n(C)c1=O [Theophylline, reference compound] | – | – | – | – | IC50 ([2]; Cavia porcellus, suppression of egg white albumin (1 x 10⁻⁵ g/ml) induced contraction of sensitized guinea pig bronchi, read-out: IC50): 35 µM; LD₅₀ (rat): about 300 mixing |
| CC(C)(C)c1cc(C=C2C(=O)N(C3CCCCC3)C(=O)N(C3CCCCC3)C2=O)cc(C(C)(C)C)c1O [Example 3, 1,3-dicyclohexyl-5-(3,5-di-tert-butyl-4-hydroxybenzylidene)-pyrimidine-2,4,6-trione] | 11 | 57 | – | 1/10 | – |
